Experimental findings from ChEMBL document CHEMBL1201862, “PubChem BioAssay data set” (2004) are described below.

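Results reflect a 48-hour exposure of cells in 96-well plates to compound at five concentrations. GI50 = concentration required for 50% inhibition of growth.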 Activity calls are given as the source filed them. Rule as the data show it: active = GI50 up to about 1.1 µM and inactive = higher. A value given as a limit tells only on which side of the number the result lay.

What all share (experiment): DTP human tumour cell line panel, 48 h
For test [1], the system named is HOP-62.
Test [2] deals with OVCAR-4.
Test [3] has as its system SR.
Test [4] deals with CAKI-1.
Test [5] concerns M14.
Test [6] concerns MCF7.
The test system of test [7] is LOX IMVI.
The subject of test [8] is HOP-92.
The test system of test [9] is NCI-H23.
Test [10] deals with MOLT-4.
Test [11] has as its system T47D.
Test [12] deals with HT-29.
Test [13] has as its system SN12C.
Test [14] concerns HCC 2998.
The test system of test [15] is COLO 205.
In test [16] the test system is SW-620.
Test [17] has as its system SK-MEL-5.
In test [18] the test system is IGROV-1.
Test [19] deals with OVCAR-5.
The subject of test [20] is RPMI-8226.

For orientation: GI50 means the concentration that inhibits growth by half. In the case of `[O-][Cl+3]([O-])([O-])O.c1ccc(C2=NN2c2ccccc2)cc1`, the GI50 in [1] was > 100 µM (inactive); in test [2] it was > 100 µM (inactive); in test [3], 26.7 µM (inactive); in test [4], > 100 µM (inactive); in test [5], 9.82 µM (inactive); in test [6], 60 µM (inactive). The GI50 in test [7] was 0.451 µM (active); in test [8] it was > 100 µM (inactive); in test [9] it was 85.7 µM (inactive); in [10], 3.73 µM (inactive); in test [11], 7.13 µM (inactive); in [12], 29.3 µM (inactive). Further, the GI50 was > 100 µM (inactive) in test [13]; 6.28 µM (inactive) in test [14]; 7.76 µM (inactive) in test [15]; 6.01 µM (inactive) in [16]; 13.8 µM (inactive) in test [17]; 34 µM (inactive) in [18]. Moreover, in test [19], the GI50 was > 100 µM (inactive).

Consider `CC(C)(C)OC(=O)NC(Cc1ccc(OCc2ccccc2)cn1)C(=O)NCc1ccccc1` (stereo unspecified), for which the GI50 in [1] is 23.3 µM (inactive); in test [20], 16.3 µM (inactive); in test [3] it was 10.1 µM (inactive); in test [4] it was 28.6 µM (inactive); in test [5], 25.8 µM (inactive); in test [6], 29.5 µM (inactive). Moreover, the GI50 in [7] was 19.1 µM (inactive); in test [8], 20 µM (inactive); in test [9], 17 µM (inactive); in [10], 13.2 µM (inactive); in test [11], 16.7 µM (inactive); in test [12] it was 29.9 µM (inactive). In addition, the GI50 in test [13] was 28.1 µM (inactive); in test [14], 34.2 µM (inactive); in test [15], 17.1 µM (inactive); in test [16], 31.3 µM (inactive); in [17], 13.3 µM (inactive); in test [18], 32.3 µM (inactive). Besides, the GI50 in test [19] was 38.6 µM (inactive).

For the compound `c1ccc2c(CN3CCN(Cc4c[nH]c5ccccc45)CC3)c[nH]c2c1`, the GI50 is 15.1 µM (inactive) in test [1]; 41.4 µM (inactive) in [2]; 19.3 µM (inactive) in test [20]; 19.7 µM (inactive) in [3]; 23.5 µM (inactive) in test [4]; 15.7 µM (inactive) in test [5]. For the same compound, the GI50 in test [6] was 17.9 µM (inactive); in [7], 16.3 µM (inactive); in [8], 14.8 µM (inactive); in test [9] it was 19.8 µM (inactive); in [11], 14.2 µM (inactive); in test [12], 17.5 µM (inactive). Besides, the GI50 in test [13] is 17.7 µM (inactive); in test [14], 1.63 µM (inactive); in test [15], 5.58 µM (inactive); in test [16], 28 µM (inactive); in [17], 15.2 µM (inactive); in [18], 11.9 µM (inactive). Further, in test [19], the GI50 is 18.7 µM (inactive).

For the compound `CCN(CC)CCCNc1nncc2c(C)c3[nH]c4ccccc4c3cc12`, the GI50 in test [1] was 0.378 µM (active); in test [2] it was 0.514 µM (active); in test [3], 0.247 µM (active); in test [4], 3.61 µM (inactive); in test [5], 1.89 µM (inactive); in test [6], 0.331 µM (active). Further, the GI50 was 0.242 µM (active) in test [7]; 0.847 µM (active) in test [8]; 0.743 µM (active) in test [9]; 0.0241 µM (active) in test [10]; 0.705 µM (active) in test [11]; 0.258 µM (active) in test [12]. Further, the GI50 in test [13] is 0.292 µM (active); in test [14], 0.802 µM (active); in test [15], 0.653 µM (active); in test [17], 1.99 µM (inactive); in [18], 0.617 µM (active); in [19] it was 1.71 µM (inactive).

Consider `CCOC(=O)C1=C(c2ccccc2)C12N(Cc1ccccc1)C(=O)C2(c1ccccc1)c1ccccc1` (stereo unspecified), for which the GI50 in [1] is 67 µM (inactive); in test [20] it was 3.16 µM (inactive); in test [3], 45.3 µM (inactive); in test [5], 43.4 µM (inactive); in test [6] it was 38.6 µM (inactive); in [7], 34.9 µM (inactive). Further, the GI50 is 20 µM (inactive) in [8]; 39.1 µM (inactive) in [9]; 38.8 µM (inactive) in test [10]; 43.2 µM (inactive) in test [11]; 43.2 µM (inactive) in [12]; 57.8 µM (inactive) in test [13]. Moreover, the GI50 is 28.1 µM (inactive) in test [14]; 25.9 µM (inactive) in [15]; 42.2 µM (inactive) in test [16]; 56.1 µM (inactive) in test [18]; 59.8 µM (inactive) in [19].

Take `N#C/C(C(=O)Nc1ccc(Cl)cc1)=C(/N)N1CCOCC1`: the GI50 in test [1] is 73.3 µM (inactive); in test [20], > 100 µM (inactive); in [3], > 100 µM (inactive); in test [4] it was > 100 µM (inactive); in test [5] it was 86.3 µM (inactive); in test [6], > 100 µM (inactive). In addition, the GI50 in test [7] is > 100 µM (inactive); in test [8] it was > 100 µM (inactive); in [9], > 100 µM (inactive); in test [10], 64 µM (inactive); in test [11] it was > 100 µM (inactive); in test [12] it was > 100 µM (inactive). Also, the GI50 in [13] is > 100 µM (inactive); in test [14], > 100 µM (inactive); in test [15], > 100 µM (inactive); in test [16], > 100 µM (inactive); in [17], 74.5 µM (inactive); in test [18] it was > 100 µM (inactive). The GI50 in [19] is > 100 µM (inactive).

Regarding `Oc1ccc(O)c(CNc2ccccc2)c1`, the GI50 is 13 µM (inactive) in [2]; 1.02 µM (active) in [20]; 2.29 µM (inactive) in test [3]; 6.89 µM (inactive) in [4]; 15.7 µM (inactive) in test [5]; 15.1 µM (inactive) in [6]. The GI50 in test [7] is 6.15 µM (inactive); in test [8], 5.07 µM (inactive); in test [9], 10.2 µM (inactive); in test [10], 2.26 µM (inactive); in [11], 8.41 µM (inactive); in test [12], 32.2 µM (inactive). In addition, the GI50 in test [13] is 11.3 µM (inactive); in test [14], 26.2 µM (inactive); in [15] it was 18.8 µM (inactive); in [16] it was 13.6 µM (inactive); in [17], 16.8 µM (inactive); in test [18], 8.53 µM (inactive). In addition, the GI50 in test [19] is 21.6 µM (inactive).

As for `c1ccc(C(=NNc2cnc3ccccc3n2)c2ccccn2)cc1`, the GI50 in test [1] is 7.26 µM (inactive); in [2], 3.89 µM (inactive); in test [20], 2.02 µM (inactive); in test [3], 1.01 µM (active); in test [4] it was 0.382 µM (active); in test [5], 0.425 µM (active). For the same compound, the GI50 in test [6] is 0.371 µM (active); in test [8], 5.6 µM (inactive); in [9], 2.61 µM (inactive); in test [10], 0.139 µM (active); in test [11], 0.0188 µM (active); in [12] it was 0.048 µM (active). Besides, the concentration for 50% growth inhibition (GI50) was 0.991 µM (active) in [13]; 4.41 µM (inactive) in test [14]; 0.119 µM (active) in [15]; 0.423 µM (active) in [16]; 1.42 µM (inactive) in [17]; 1.75 µM (inactive) in test [18]. Moreover, the GI50 in test [19] is 2.59 µM (inactive).

For `CC1=CC(=O)N(n2c(C)n[nH]c2=O)C1=O`, the GI50 in test [2], in test [20], in [3], in test [4], in test [5] and in test [6] was > 100 µM (inactive) in each case. Also, the GI50 in test [7], in test [8], in test [9], in test [10], in [11] and in [12] was > 100 µM (inactive) each time. The GI50 in test [13], in [14], in [15], in test [16], in test [17] and in test [18] was > 100 µM (inactive) each time. The GI50 in [19] is > 100 µM (inactive).

`Br[Se]c1ccccn1`: the GI50 in test [1] was 2.48 µM (inactive); in test [2] it was 16.9 µM (inactive); in test [20] it was 23.8 µM (inactive); in test [3], 23.4 µM (inactive); in test [4] it was 18.7 µM (inactive); in test [5], 17.6 µM (inactive). The GI50 is 17.7 µM (inactive) in test [6]; 18.7 µM (inactive) in test [7]; 18.5 µM (inactive) in test [8]; 20.7 µM (inactive) in [9]; 21.8 µM (inactive) in test [11]; 25.3 µM (inactive) in [12]. The GI50 is 18.7 µM (inactive) in [13]; 21.1 µM (inactive) in test [14]; 17.1 µM (inactive) in test [15]; 23.9 µM (inactive) in [16]; 15.6 µM (inactive) in test [17]; 17.5 µM (inactive) in [18]. For the same compound, the GI50 in test [19] was 20.2 µM (inactive).

With `COc1ccc2cc(C(C)C(=O)N3C(=O)OCC3(C)C)ccc2c1` (stereo unspecified), the GI50 in test [1], in test [2], in test [20], in test [3], in test [5] and in test [6] was > 100 µM (inactive) in each case. Besides, the GI50 in test [7], in test [8], in test [9], in test [10], in test [11] and in [12] was > 100 µM (inactive) each time. Besides, the GI50 in [13], in [14], in test [15], in test [16], in test [17] and in test [18] was > 100 µM (inactive) throughout. For the same compound, the GI50 in test [19] is > 100 µM (inactive).
